Source: the supplement of paper PMC10307832

Tests used:
Assay in all cases: relative viability (nuclei count vs DMSO), 5 days (fraction); higher = more cells survive
Cediranib + OSI-027 = compound: COc1cc2c(Oc3ccc4[nH]c(C)cc4c3F)ncnc2cc1OCCCN1CCCC1 [Cediranib] + COc1cccc2cc(-c3nc([C@H]4CC[C@H](C(=O)O)CC4)n4ncnc(N)c34)[nH]c12 [OSI-027] (partner 0.5 µM)
Method in brief: (§1)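 Relative viability was taken as the ratio of nuclei in treated wells to nuclei in vehicle wells. Lung cancer cell lines in 1536-well plates received compounds by pin tool one day after seeding, either one drug alone or a fixed anchor-drug dose plus five library-drug doses (not always all listed) in √10 steps. Nuclei were counted on 4× images after 5 days of treatment, and values are medians of duplicate plates.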

Halofuginone + Dasatinib = compound: O=C(C[C@H]1NCCC[C@@H]1O)Cn1cnc2cc(Br)c(Cl)cc2c1=O (racemic) [Halofuginone] + Cc1nc(Nc2ncc(C(=O)Nc3c(C)cccc3Cl)s2)cc(N2CCN(CCO)CC2)n1 [Dasatinib] (partner 0.075 µM)
Method in brief: as §1

Halofuginone + AZD7762 = compound: O=C(C[C@H]1NCCC[C@@H]1O)Cn1cnc2cc(Br)c(Cl)cc2c1=O (racemic) [Halofuginone] + NC(=O)Nc1cc(-c2cccc(F)c2)sc1C(=O)N[C@H]1CCCNC1 [AZD7762] (partner 0.2 µM)
Method in brief: as §1

[1] = compound: O=C(C[C@H]1NCCC[C@@H]1O)Cn1cnc2cc(Br)c(Cl)cc2c1=O (racemic) [Halofuginone] + CC(=O)Nc1cccc(-n2c(=O)n(C3CC3)c(=O)c3c(Nc4ccc(I)cc4F)n(C)c(=O)c(C)c32)c1 [Trametinib] (partner 0.02 µM)
Method in brief: as §1

| Cell Line | relative viability (Cediranib + OSI-027; first compound 0.04 µM) | relative viability (Cediranib + OSI-027; first compound 0.1265 µM) | relative viability (Cediranib + OSI-027; first compound 0.4 µM) | relative viability (Cediranib + OSI-027; first compound 1.265 µM) | relative viability (Cediranib + OSI-027; first compound 4 µM) | relative viability (Halofuginone + Dasatinib; first compound 0.001 µM) | relative viability (Halofuginone + Dasatinib; first compound 0.003162 µM) | relative viability (Halofuginone + Dasatinib; first compound 0.01 µM) | relative viability (Halofuginone + Dasatinib; first compound 0.03162 µM) | relative viability (Halofuginone + Dasatinib; first compound 0.1 µM) | relative viability (Halofuginone + AZD7762; first compound 0.001 µM) | relative viability (Halofuginone + AZD7762; first compound 0.003162 µM) | relative viability (Halofuginone + AZD7762; first compound 0.01 µM) | relative viability (Halofuginone + AZD7762; first compound 0.03162 µM) | relative viability (Halofuginone + AZD7762; first compound 0.1 µM) | relative viability ([1]; first compound 0.001 µM) | relative viability ([1]; first compound 0.003162 µM) | relative viability ([1]; first compound 0.01 µM) | relative viability ([1]; first compound 0.03162 µM) | relative viability ([1]; first compound 0.1 µM) |
| --- | --- | --- | --- | --- | --- | --- | --- | --- | --- | --- | --- | --- | --- | --- | --- | --- | --- | --- | --- | --- |
| LU99A | 0.281 | 0.314 | 0.305 | 0.286 | 0.288 | 0.743 | 0.584 | 0.453 | 0.53 | 0.392 | 0.323 | 0.347 | 0.384 | 0.327 | 0.346 | 0.554 | 0.598 | 0.545 | 0.589 | 0.536 |
| LXF-289 | 0.667 | 0.641 | 0.689 | 0.77 | 0.79 | 0.318 | 0.266 | 0.267 | 0.222 | 0.198 | 1.08 | 1.17 | 1.02 | 1.12 | 1.01 | 0.688 | 0.717 | 0.66 | 0.707 | 0.676 |
| NCI-H23 | 0.511 |  | 0.557 | 0.511 | 0.582 | 0.862 | 0.86 | 0.891 | 0.741 | 0.472 | 0.32 | 0.184 | 0.223 | 0.233 | 0.246 | 0.413 | 0.407 | 0.392 | 0.402 | 0.217 |
| NCI-H322M | 0.541 | 0.567 | 0.535 | 0.52 | 0.538 | 0.27 | 0.26 | 0.251 | 0.208 | 0.212 | 0.517 | 0.708 | 0.526 | 0.614 | 0.426 | 0.512 | 0.441 | 0.513 | 0.479 | 0.423 |
| NCI-H358 | 0.812 | 0.967 | 0.683 | 0.609 | 0.845 | 0.175 | 0.188 | 0.115 | 0.0901 | 0.0916 | 0.496 | 0.492 | 0.447 | 0.246 | 0.149 | 0.158 | 0.138 | 0.12 | 0.119 | 0.0998 |
| NCI-H441 | 0.809 |  | 0.658 | 0.675 | 0.632 | 0.654 | 0.576 | 0.668 | 0.459 | 0.237 | 1.13 | 1.35 | 1.18 | 1.3 | 0.599 | 0.48 | 0.428 | 0.493 | 0.471 | 0.233 |
| NCI-H460 | 0.852 | 0.684 | 0.573 | 0.605 | 0.613 | 0.571 | 0.542 | 0.445 | 0.349 | 0.157 | 0.725 | 0.601 | 0.673 | 0.605 | 0.305 | 0.115 | 0.197 | 0.172 | 0.0823 | 0.022 |
| NCI-H522 | 0.719 | 0.77 | 0.686 | 0.707 | 0.694 | 0.894 | 0.863 | 1.06 | 0.806 | 0.881 | 0.969 | 0.948 | 0.974 | 0.852 | 0.813 | 0.734 | 0.753 | 0.791 | 0.777 | 0.633 |
| NCI-H596 | 0.775 | 0.815 | 0.723 |  | 0.788 | 0.538 | 0.533 | 0.598 | 0.559 | 0.366 | 1.19 | 1.18 | 1.1 | 0.95 | 0.722 | 0.889 | 0.732 | 0.811 | 0.898 | 0.542 |
| NCI-H647 | 0.614 | 0.694 | 0.549 | 0.49 | 0.841 | 0.219 | 0.216 | 0.188 | 0.171 | 0.099 | 0.489 | 0.451 | 0.52 | 0.388 | 0.416 | 0.499 | 0.574 | 0.421 | 0.336 | 0.292 |
| NCI-H650 | 0.485 | 0.521 | 0.508 | 0.499 | 0.542 | 0.528 | 0.478 | 0.47 | 0.452 | 0.367 | 1.06 | 0.848 | 1.21 | 1 | 0.594 | 0.898 | 1.19 | 1.09 | 1.08 | 0.77 |
| NCI-H727 |  | 0.486 | 0.523 | 0.468 | 0.617 | 0.417 | 0.411 | 0.397 | 0.396 | 0.263 | 0.777 | 0.551 | 0.72 | 0.677 | 0.634 | 0.44 | 0.362 | 0.403 | 0.406 | 0.422 |
| NCI-H838 | 0.41 | 0.364 | 0.379 | 0.348 | 0.483 | 0.312 | 0.307 | 0.339 | 0.228 | 0.17 | 1.02 | 0.799 | 0.933 | 0.876 | 0.751 | 0.504 | 0.518 | 0.468 | 0.38 | 0.191 |
| NCI-H1355 | 0.38 | 0.363 | 0.387 | 0.34 | 0.449 | 0.762 | 0.764 | 0.727 | 0.692 | 0.458 | 0.801 | 0.81 | 0.688 | 0.73 | 0.616 | 0.481 | 0.429 | 0.4 | 0.415 | 0.4 |
